Results published in patent publication US20140288113A1, “Extended Release Compositions Comprising Hydrocodone And Acetaminophen For Rapid Onset And Prolonged Analgesia That May Be Administered Without Regard To Food” (MALLINCKRODT LLC, priority 2013, published 2014).

Experiments:
hepatic GSH [1] = assay: Hepatic glutathione depletion after acetaminophen in Swiss mice (Brzeznicka and Piotrowski 1989); type: in vivo
Excerpt: The bioequivalence level is 95%.

hepatic GSH [2] = conditions: mice, cited from earlier work

## CC(=O)Nc1ccc(O)cc1 [acetaminophen]
Hepatic GSH [1]; Swiss mice 400 mg/kg
  safety exposure ratio compared with human levels (1.3 g/day, 70 kg): 22 fold
Hepatic GSH [1]; Swiss mice 600 mg/kg
  safety exposure ratio compared with human levels (1.3 g/day, 70 kg): 32 fold
Hepatic GSH [2]; 100 mg/kg to 600 mg/kg
  time after administration at which circulating hepatic GSH changes began: ≤ 15 min
Hepatic GSH [2]; all dose groups
  time after injection of minimum GSH level: 2 h
